Tested on: T1, urease
T1 construct: gene jack bean urease
Settings: 100 mM urea, room temperature, 10 min; reference inhibitor

`NC(N)=S` [Thiourea] was tested, and the “Urease IC50” value was 24.5 ± 0.7 µg/mL.

Source: paper PMC12743403, “Green-synthesized silver nanoparticles from Camellia sinensis: mechanistic insights into phenolic-mediated multifunctional biological activities” (BMC Plant Biology, 2025)
